Results published in patent US9757375B2, “Compounds that inhibit human DNA ligases and methods of treating cancer” (University of Maryland, Baltimore, priority 2007, dated 2017).
Entries after “also recorded” stand apart in the source; their conditions may differ. Read-outs that look alike come from different tables or passages of the source.

Experiments:
[1] = biological target: T1, hLigI (Homo sapiens, UniProt P18858); experiment: High-throughput fluorescence-based DNA joining (ligation) assay; format: biochemical; conditions: for inhibition of hLigI (DNA ligase I), in words: in vitro screen, 100 μmol/L, the 15 hLigI inhibitors inhibited by >50%
T1 construct: made in house
T1 sequence (P18858 whole entry): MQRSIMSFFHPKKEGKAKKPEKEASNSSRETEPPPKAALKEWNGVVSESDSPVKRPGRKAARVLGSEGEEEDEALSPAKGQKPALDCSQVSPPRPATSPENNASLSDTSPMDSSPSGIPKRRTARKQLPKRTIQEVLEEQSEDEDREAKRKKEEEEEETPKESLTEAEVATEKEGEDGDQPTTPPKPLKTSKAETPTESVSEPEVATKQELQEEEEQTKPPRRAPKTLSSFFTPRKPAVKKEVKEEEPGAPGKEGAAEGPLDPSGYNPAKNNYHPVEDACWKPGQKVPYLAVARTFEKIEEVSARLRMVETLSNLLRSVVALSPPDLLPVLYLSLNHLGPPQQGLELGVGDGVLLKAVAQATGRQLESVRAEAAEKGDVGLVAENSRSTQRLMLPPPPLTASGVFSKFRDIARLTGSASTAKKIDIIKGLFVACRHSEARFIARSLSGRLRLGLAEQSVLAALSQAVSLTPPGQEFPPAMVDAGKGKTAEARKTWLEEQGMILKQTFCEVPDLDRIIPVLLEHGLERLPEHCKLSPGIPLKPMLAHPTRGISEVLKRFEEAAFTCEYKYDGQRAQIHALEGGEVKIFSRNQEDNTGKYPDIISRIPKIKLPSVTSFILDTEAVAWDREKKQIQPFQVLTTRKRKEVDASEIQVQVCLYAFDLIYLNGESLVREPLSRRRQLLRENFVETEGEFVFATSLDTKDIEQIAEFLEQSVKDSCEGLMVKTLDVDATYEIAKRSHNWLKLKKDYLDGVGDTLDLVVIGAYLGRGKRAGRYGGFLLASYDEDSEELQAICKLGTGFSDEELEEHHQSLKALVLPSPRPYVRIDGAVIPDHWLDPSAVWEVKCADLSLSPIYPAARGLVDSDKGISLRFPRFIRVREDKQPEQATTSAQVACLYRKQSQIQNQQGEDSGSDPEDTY
Protocol: (§1) Candidate ligase inhibitors identified by CADD were assayed for their ability to inhibit hLigI and T4 DNA ligase using a high-throughput, fluorescence energy transfer-based DNA joining assay (22). Duplicate reactions (30 μL) containing 10 pmol of nicked DNA substrate and either 0.25 pmol of hLigI or 10 units of T4 DNA ligase were incubated in the presence or absence of 100 μmol/L of the putative inhibitor. DNA binding by the candidate DNA ligase inhibitors was measured by displacement of ethidium bromide from DNA as previously described (30).
(§2) The method for screening compounds comprises testing the compound for the ability to inhibit human DNA ligases I, III and IV with a high throughput fluorescence-based ligation assay. In this assay, phosphodiester bond formation covalently links together two oligonucleotides, one of which is a fluorescent donor AF488 that is 11 nucleotides from the 3′ terminus and the other contains a fluorescence acceptor and quencher, BHQ1 that is 15 nucleotides from the 5′ terminus. When these oligonucleotides are present in separate duplexes and in the same nicked or intact duplex, there is no significant quenching of fluorescence because the donor and acceptor are too far apart. As single-strands neither the AF488 oligonucleotide nor the BHQ1 oligonucleotides have significant secondary structure. However, when these oligonucleotides are ligated together, the resultant single strand forms a stable hairpin structure, in which the AF488 and BHQ1 groups are very close together, resulting in efficient intra-molecular quenching of fluorescence. Thus, in the DNA joining assay, the DNA substrate is denatured after incubation with the DNA ligase and then renatured in the presence of a 20-fold excess of an oligonucleotide that is identical to the ligated strand containing the fluorescent door and acceptor except that it lacks these modifications. Using this assay, DNA joining, which results in reduced fluorescence at 518 nm, can be measured rapidly, quantitatively and with high-throughput using a fluorescence plate reader.
(§3) Applicants developed a novel high throughput fluorescence-based ligation assay by modifying the sequence of the oligos to optimize hairpin formation by the single strand ligated product of the high throughput fluorescence-based ligation assay of Chen et al (22). […] Compound stock solutions, which were 10 mM in 0.5% DMSO, were diluted in 0.5% DMSO. Human DNA ligases I and III were assayed with a nicked DNA substrate whereas as the substrate for human DNA ligase IV was two oligonucleotide duplexes with short complementary single strand ends.

[2] = biological target: human DNA ligase IV (Homo sapiens, UniProt P49917); experiment: as above; format: biochemical; conditions: for % activity Inhibition hLigIV 100 uM: Ø not defined (0 in Table 5A)
Chain of human DNA ligase IV (P49917 whole entry): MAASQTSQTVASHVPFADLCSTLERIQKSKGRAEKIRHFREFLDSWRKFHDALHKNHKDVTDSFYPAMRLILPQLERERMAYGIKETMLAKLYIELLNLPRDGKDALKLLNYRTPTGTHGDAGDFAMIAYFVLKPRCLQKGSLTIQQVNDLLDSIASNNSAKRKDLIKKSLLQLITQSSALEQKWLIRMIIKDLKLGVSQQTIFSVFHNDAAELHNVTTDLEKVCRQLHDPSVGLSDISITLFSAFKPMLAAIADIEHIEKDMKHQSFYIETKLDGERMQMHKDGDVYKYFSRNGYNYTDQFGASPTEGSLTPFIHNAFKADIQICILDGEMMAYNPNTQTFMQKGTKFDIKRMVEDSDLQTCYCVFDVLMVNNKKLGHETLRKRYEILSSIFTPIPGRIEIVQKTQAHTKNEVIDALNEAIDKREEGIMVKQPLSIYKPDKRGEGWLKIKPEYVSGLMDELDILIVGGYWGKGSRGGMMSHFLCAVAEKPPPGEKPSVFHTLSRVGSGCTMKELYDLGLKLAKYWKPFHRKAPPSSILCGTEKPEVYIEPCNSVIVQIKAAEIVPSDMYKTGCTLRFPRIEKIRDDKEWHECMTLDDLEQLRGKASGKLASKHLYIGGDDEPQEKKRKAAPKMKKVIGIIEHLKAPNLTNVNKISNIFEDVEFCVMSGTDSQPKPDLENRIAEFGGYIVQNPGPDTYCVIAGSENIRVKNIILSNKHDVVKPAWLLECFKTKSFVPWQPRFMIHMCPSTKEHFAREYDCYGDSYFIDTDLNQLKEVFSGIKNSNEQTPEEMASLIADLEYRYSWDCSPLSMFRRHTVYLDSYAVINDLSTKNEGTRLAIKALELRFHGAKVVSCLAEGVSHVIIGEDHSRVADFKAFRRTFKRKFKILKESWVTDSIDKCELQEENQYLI
Chain of human DNA ligase IV (Q13426 whole entry partner): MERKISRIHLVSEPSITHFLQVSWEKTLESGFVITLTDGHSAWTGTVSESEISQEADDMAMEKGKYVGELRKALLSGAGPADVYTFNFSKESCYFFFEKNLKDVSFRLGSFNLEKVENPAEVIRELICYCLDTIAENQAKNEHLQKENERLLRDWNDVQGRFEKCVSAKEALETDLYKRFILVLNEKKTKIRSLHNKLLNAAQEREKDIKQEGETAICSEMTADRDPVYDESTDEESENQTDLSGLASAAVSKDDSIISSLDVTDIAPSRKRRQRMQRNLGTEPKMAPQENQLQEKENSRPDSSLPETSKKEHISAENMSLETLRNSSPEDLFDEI
Text: as §2, §3

[3] = biological target: T2, human DNA ligase III (Homo sapiens, UniProt P49916); experiment: as above; format: biochemical
T2 sequence (P49916 1-862 isoform P49916-4): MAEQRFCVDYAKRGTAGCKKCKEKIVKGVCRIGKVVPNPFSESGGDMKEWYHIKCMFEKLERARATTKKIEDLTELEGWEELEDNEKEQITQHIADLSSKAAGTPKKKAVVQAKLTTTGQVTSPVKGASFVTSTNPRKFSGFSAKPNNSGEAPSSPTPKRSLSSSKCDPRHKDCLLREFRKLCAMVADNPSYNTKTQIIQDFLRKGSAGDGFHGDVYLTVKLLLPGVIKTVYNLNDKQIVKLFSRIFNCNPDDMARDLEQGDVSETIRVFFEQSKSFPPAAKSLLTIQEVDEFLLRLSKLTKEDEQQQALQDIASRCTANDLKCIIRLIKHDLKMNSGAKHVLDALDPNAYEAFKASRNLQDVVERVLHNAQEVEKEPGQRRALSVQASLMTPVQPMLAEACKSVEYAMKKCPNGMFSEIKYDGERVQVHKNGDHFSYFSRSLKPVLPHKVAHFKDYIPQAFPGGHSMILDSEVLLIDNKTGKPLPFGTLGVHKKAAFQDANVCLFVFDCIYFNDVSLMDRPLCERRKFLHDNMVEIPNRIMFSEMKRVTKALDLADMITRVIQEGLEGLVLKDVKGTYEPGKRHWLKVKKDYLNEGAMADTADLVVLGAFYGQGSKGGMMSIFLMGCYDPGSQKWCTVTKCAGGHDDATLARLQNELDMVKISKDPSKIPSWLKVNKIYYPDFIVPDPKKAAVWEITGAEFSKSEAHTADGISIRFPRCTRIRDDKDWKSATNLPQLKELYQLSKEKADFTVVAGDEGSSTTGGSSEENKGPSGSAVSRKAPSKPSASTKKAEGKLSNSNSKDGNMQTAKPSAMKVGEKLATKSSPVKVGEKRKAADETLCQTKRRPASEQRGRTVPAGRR
Text: as §2, §3

[4] = biological target: T3, T4 DNA ligase (Enterobacteria phage T4, UniProt P00970); experiment: High-throughput fluorescence-based DNA joining assay, non-specific inhibitor control; format: biochemical, bacteriophage T4
T3 construct: purchased NEB
T3 sequence (P00970 1-487): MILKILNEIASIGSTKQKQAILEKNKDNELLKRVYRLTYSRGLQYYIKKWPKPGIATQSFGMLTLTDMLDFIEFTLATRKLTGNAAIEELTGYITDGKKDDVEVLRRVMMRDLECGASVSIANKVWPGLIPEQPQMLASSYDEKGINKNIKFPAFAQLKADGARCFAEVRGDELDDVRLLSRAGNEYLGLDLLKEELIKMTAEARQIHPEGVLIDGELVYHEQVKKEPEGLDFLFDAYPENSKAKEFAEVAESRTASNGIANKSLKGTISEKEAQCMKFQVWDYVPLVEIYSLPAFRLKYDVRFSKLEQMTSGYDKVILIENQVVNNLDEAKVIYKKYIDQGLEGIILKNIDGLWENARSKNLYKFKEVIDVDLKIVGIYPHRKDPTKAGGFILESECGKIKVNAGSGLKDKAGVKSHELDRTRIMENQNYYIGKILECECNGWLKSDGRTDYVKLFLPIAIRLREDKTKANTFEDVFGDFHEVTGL
Protocol: as §1
In addition, to identify compounds that may be non-specific inhibitors of DNA joining, the 192 compounds were also assayed for their ability to inhibit bacteriophage T4 DNA ligase, an enzyme that utilizes the same reaction mechanism as hLigI, has similar adenylation and OB-fold domains but lacks a DBD domain. (6) Although this is also an ATP-dependent DNA ligase, it lacks the domain containing the binding pocket targeted by the in silico screen. Compounds that inhibited T4 DNA ligase were eliminated as non-specific inhibitors that most likely bind to the DNA.

[5] = 100 uM, read-out: % activity Inhibition hLigI 100 uM
[6] = 100 uM, Ø not defined (0 in Table 5A), read-out: % activity Inhibition hLigIII 100 uM
[7] = read-out: % activity Inhibition LigT4 100 uM
[8] = 100 uM, Ø not defined (0 in Table 5A)
[9] = 100 μM, read-out: % of inhibition @ 100 μM (Helen's data) hLigI
[10] = read-out: % of inhibition @ 100 μM (Helen's data) hLigIV
[11] = read-out: % of inhibition @ 100 μM (Helen's data) hLigIII

| SMILES | inhibition at 100 µM [1, 5] [%] | % activity Inhibition hLigIV 100 uM [2] | inhibition at 100 µM [4, 7] [%] | % activity Inhibition hLigIII 100 uM [3, 8] | also measured |
| --- | --- | --- | --- | --- | --- |
| O=C1Nc2c(C(=O)O)cccc2C1=O [Compound 25] | 59.3 ± 7.5 | Ø | 12.9 ± 6.3 | – | inhibition at 100 µM ([1]; 100 μM, read-out: In vitro % inhib hLigI 100): 59 ± 8%; inhibition of hLigI (DNA ligase I), in words [1]: inhibited hLigI; also recorded: specifically inhibit DNA ligases I and III; inhibition at 100 µM ([2]; read-out: In vitro % inhib hLigIV 100): 0%; inhibition at 100 µM ([3]; 100 μM, read-out: In vitro % inhib hLigIII 100): 73 ± 5%; inhibition at 100 µM [3, 6]: 72.8 ± 4.8%; inhibition of human DNA ligase III, in words ([3]; in vitro screen): specifically inhibit DNA ligases I and III; inhibition at 100 µM ([4]; 100 μM, read-out: In vitro % inhib T4 100): 13 ± 6% |
| COC(=O)c1ccc(-n2nnnc2SCC(=O)c2ccc(O)c(O)c2)cc1 [Compound 32] | – | – | – | – | inhibition of hLigI (DNA ligase I), in words [1]: inhibited hLigI |
| Cc1[nH]c2ccc(C(=O)O)cc2c1CC(=O)O [Compound 35] | 38.7 | Ø | 3.7 ± 2.3 | Ø | – |
| O=C(O)Cn1nnnc1-c1ccc(F)cc1 [Compound 37] | 25.2 ± 14.1 | Ø | 3.7 | Ø | – |
| O=C(O)c1ccc(C(=O)c2ccc3c(c2)C(=O)N(CCO)C3=O)cc1 [Compound 46] | – | Ø | – | – | % activity Inhibition hLigI 100 uM ([1]; 100 uM): Ø; inhibition at 100 µM [3, 6]: 21.6 ± 8.56% |
| O=C(O)c1ccc(Sc2ccccn2)c([N+](=O)[O-])c1 [Compound 47] | 24.2 ± 4.3 | Ø | 2.2 ± 0.7 | Ø | – |
| CCC(Nc1ncnc2ccccc12)C(=O)O (stereo not drawn) [Compound 51] | 24.3 ± 13.5 | Ø | 0 | Ø | – |
| O=C(O)c1ccc(C(=O)O)c(C(=O)O)c1 [Compound 53] | 36.4 ± 4.7 | Ø | 3.7 ± 4.8 | Ø | – |
| Nc1nonc1C(=O)O [Compound 54] | 32.2 ± 10.5 | Ø | 6.9 ± 0.45 | Ø | – |
| COC(=O)c1ccc(S(=O)(=O)O)o1 [Compound 55] | – | Ø | – | Ø | % activity Inhibition hLigI 100 uM ([1]; 100 uM): 7.5 ± 9.3%; % activity Inhibition LigT4 100 uM [4]: 0.58 ± 3.1% |
| O=C(NN=Cc1ccc(S(=O)(=O)O)o1)c1ccccc1O [Compound 79] | – | – | – | – | % of inhibition @ 100 μM (Helen's data) hLigI ([1]; 100 μM): NI (NI- no inhibition); % of inhibition @ 100 μM (Helen's data) hLigIV [2]: NI (NI- no inhibition); % of inhibition @ 100 μM (Helen's data) hLigIII ([3]; 100 μM): NI (NI- no inhibition) |
| O=C(O)CN1C(=O)c2ccc([N+](=O)[O-])cc2C1=O [Compound 90] | 20.7 ± 4.8 | Ø | 1.6 ± 3.1 | Ø | – |
| COc1cccc(Cn2nnc(C(=O)O)c2C(=O)O)c1 [Compound 103] | 23.1 ± 1.8 | Ø | 6.2 ± 4.3 | Ø | – |
| N#CCSc1nnc(SCC#N)s1 [Compound 123] | – | – | – | – | inhibition of hLigI (DNA ligase I), in words [1]: inhibited hLigI |
| COC(=O)c1scc(Br)c1O [Compound 124] | – | – | – | – | inhibition at 100 µM [1, 9]: < 20%; inhibition at 100 µM [2, 10]: < 20%; inhibition at 100 µM [3, 11]: < 20% |
| Sc1nccc(-c2cccnc2)n1 [Compound 130] | – | – | – | – | inhibition at 100 µM [1, 9]: < 20%; inhibition at 100 µM [2, 10]: < 20%; inhibition at 100 µM [3, 11]: < 20% |
| O=C(O)c1ccc2nccnc2c1 [Compound 175] | – | – | – | – | inhibition of hLigI (DNA ligase I), in words [1]: inhibited hLigI |
| O=C(O)Cc1ccccc1S(=O)(=O)c1ccc(Cl)cc1 [Compound 193] | – | Ø | – | Ø | % activity Inhibition hLigI 100 uM ([1]; 100 uM): 28.2 ± 34.4%; % of inhibition @ 100 μM (Helen's data) hLigI ([1]; 100 μM): NI (NI- no inhibition); % of inhibition @ 100 μM (Helen's data) hLigIV [2]: NI (NI- no inhibition); % of inhibition @ 100 μM (Helen's data) hLigIII ([3]; 100 μM): NI (NI- no inhibition); % activity Inhibition LigT4 100 uM [4]: 0.44 ± 2.1% |
| COc1ccc(C(CC(=O)O)NC(=O)c2ccco2)cc1 (stereo not drawn) [Compound 207] | 20.7 ± 19 | Ø | 10 ± 2 | – | inhibition at 100 µM [3, 6]: 25.8 ± 10.7% |
| O=C(O)c1ccc([N+](=O)[O-])c(C(=O)O)n1 [Compound 212] | – | – | – | – | inhibition at 100 µM [1, 9]: < 20%; inhibition at 100 µM [2, 10]: < 20%; inhibition at 100 µM [3, 11]: < 20% |
| Oc1nn(-c2ccc(Br)cc2)cc1Br [Compound 221] | – | – | – | – | inhibition at 100 µM [1, 9]: > 20%; inhibition at 100 µM [2, 10]: < 20%; inhibition at 100 µM [3, 11]: < 20% |
